This is an account of results in US6548546B2, “HIV integrase inhibitors” (Bristol-Myers Squibb Company, priority 2000, dated 2003).

What is called inhibition is how much of the control response was suppressed.

The assay deals with T1, Purified recombinant HIV-1 integrase (Human immunodeficiency virus type 1 group M subtype B, UniProt P04585).
T1 construct: Purified recombinant HIV-1 integrase
The assay can be described thus: in vitro HIV-1 integrase integration (strand transfer) assay. Type of assay: biochemical. The conditions noted are these: compound at 70 μM; immobilized precleaved substrate DNA, biotinylated target DNA, 1 hour at 37° C. The method, then:
The in vitro activities, against integrase, of compounds of the present invention, were measured in a manner which was similar to previously disclosed methods (cf. Hazuda, D. J.; Felock, P.; Witmer, M.; Wolfe, A.; Stillmock, K.; Grobler, J. A.; Espeseth, A.; Gabryelski, L.; Schleif, W.; Blau, C.; Miller, M. D. Science, 2000, 287, 646) Purified recombinant HIV-1 integrase was incubated with immobilized precleaved substrate DNA in a 96 well plate for 20 min at 37° C. After the integration complex was formed, compounds at desired concentrations were added to the wells followed by a 10 min incubation at 37° C. Biotinyted Target DNA was then added and the reaction was carried out for an additional 1 hour at 37° C. Wells were then washed thoroughly to remove any free DNA and integration activity was measured by using a commercial kit to quantitate the amount of biotinyted target DNA integrated into the substrate.
`O=C(/C=C(\O)C(=O)O)CCc1ccccc1Cl` [Compound 1, 6-(2-chloro-phenyl)-2-hydroxy-4-oxo-hex-2-enoic Acid]: the inhibition at 70 µM was determined as 70%.
The same measure for `O=C(/C=C(\O)C(=O)O)CCc1ccccc1Br` [Compound 2, 6-(2-Bromo-phenyl)-2-hydroxy-4-oxo-hex-2-enoic Acid]: 90%; for `O=C(/C=C(\O)C(=O)O)CCc1ccccc1` [Compound 3, 2-Hydroxy-4-oxo-phenyl-hex-2-enoic Acid]: 60%; for `O=C(/C=C(\O)C(=O)O)CC(=O)c1ccccc1OCc1ccccc1` [Compound 4, 6-(2-Benzyloxy-phenyl)-2-hydroxy-4,6,-dioxo-hex-2-enoic Acid]: 97%.
The same measure for `O=C(/C=C(\O)C(=O)O)CC(=O)c1ccccc1C(F)(F)F` [Compound 5, 2-Hydroxy-4,6-dioxo-6-(2-trifluoromethyl-phenyl)-hex-2-enoic Acid]: 90%; for `COc1ccccc1C(=O)CC(=O)/C=C(\O)C(=O)O` [Compound 6, 2-Hydroxy-6-(2-methoxy-phenyl)-4,6-dioxo-hex-2-enoic Acid]: 90%; for `O=C(/C=C(\O)C(=O)O)CC(=O)c1ccc2ccccc2c1` [Compound 7, 2-Hydroxy-6-naphthalen-2-yl-4,6-dioxo-hex-2-enoic Acid]: 95%.
The same measure for `O=C(/C=C(\O)C(=O)O)CC(=O)c1ccc(Cl)cc1Cl` [Compound 8, 6-(2,4,-Dichloro-phenyl)-2-hydroxy-4,6-dioxo-hex-2-enoic Acid]: 95%; for `O=C(/C=C(\O)C(=O)O)CC(=O)c1ccc(-c2ccccc2)cc1` [Compound 9, 6-Biphenyl-4-yl-2-hydroxy-4,6-dioxo-hex-2-enoic Acid]: 99%.
For the molecule `O=C(/C=C(\O)C(=O)O)CC(=O)c1cccc(Cl)c1` [Compound 10, 6-(3-Chloro-phenyl)-2-hydroxy-4,6-dioxo-hex-2-enoic Acid], the inhibition at 70 µM is 88%.
The same measure for `O=C(/C=C(\O)C(=O)O)CC(=O)c1ccccc1F` [Compound 11, 6-(2-Fluoro-phenyl)-2-hydroxy-4,6,-dioxo-hex-2-enoic Acid]: 86%; for `O=C(/C=C(\O)C(=O)O)CC(=O)c1cc(Cl)ccc1Cl` [Compound 12, 6-(2,5-Dichloro-phenyl)2-hydroxy-4,6-dioxo-hex-2-enoic Acid]: 98%; for `O=C(/C=C(\O)C(=O)O)CC(=O)c1ccccc1` [Compound 13, 2-Hydroxy-4,6-dioxo-6-phenyl-hex-2-enoic Acid]: 50%.
